Key:
[1] = tested on: human acute myelogenous leukemia cell line HL-60; test: Ability to induce differentiation of HL-60 cells (oxygen radical production after phorbol ester, WST-1); type: cell-based; conditions: 72 hours incubation, then WST-1 and phorbol 12,13-didecanoate for 4 hours, absorbance at 450 nm
[2] = Action to increase calcium concentration in serum, percutaneous administration; type: in vivo, SD male rats; conditions: for Serum Calcium Concentration: percutaneous 33 μg/200 μL/kg/day once a day for 7 days, blood 24 hours after final administration
Protocol: The compound of the invention mentioned in Example 1 or maxacalcitol in ethanol containing 0.3% DMSO was repeatedly subjected to percutaneous administration (33 μg/200 μL/kg/day) once a day for 7 days onto the back of SD male rats (7 weeks of age). Ethanol containing 0.3% DMSO was administered to a control group. At 24 hours after the final administration, blood was collected and the calcium concentration in serum was measured.

[3] = Action to increase the urinary excretion of calcium (1), percutaneous administration; type: in vivo, SD male rats; conditions: percutaneous 10 μg/200 μL/kg/day once a day for 4 days; for Calcium in Urine within 24 hours: accumulated excretion 0 to 24 hours; for Calcium in Urine within 48 hours: accumulated excretion 0 to 48 hours; for Calcium in Urine within 72 hours: accumulated excretion 0 to 72 hours; for Calcium in Urine within 96 hours: accumulated excretion 0 to 96 hours
Protocol: The compound of the invention mentioned in Example 1, 36, 43, 47, 48, 55 or 70 or maxacalcitol in ethanol containing 0.5% DMSO was repeatedly subjected to a percutaneous administration (10 μg/200 μL/kg/day) once a day for 4 days onto the back of SD male rats (7 weeks of age). Ethanol containing 0.5% DMSO was administered to a control group. The calcium concentration in urine collected every 24 hours was measured and multiplied by the amount of urine to calculate the urinary excretion of calcium. The calcium excretion in urine shown in Table 3 indicates the accumulated calcium excretion from 0 to 24 hours, from 0 to 48 hours, from 0 to 72 hours, and from 0 to 96 hours.

[4] = Metabolic rate in human liver microsome; type: in vitro ADME; conditions: pooled human liver microsome 1 mg/mL protein, NADPH-regenerating system, 37° C., 2-60 minutes, HPLC
Protocol: The compounds of the invention mentioned in Examples and maxacalcitol were compared with each other with respect to the metabolic rate in human liver microsome.
As to the pooled human liver microsome (HHM-0323), those manufactured by Tissue Transformation Technologies were used. A 0.25 M potassium phosphate buffer (pH 7.4) (200 μL), 5 μL of a 250 μM solution of each compound to be tested in DMSO, 50 μL of an NADPH-regenerating system (where 20 mg of β-NADP^+, 70 mg of glucose-6-phosphate, 40 units of glucose-6-phosphate dehydrogenase and 20 mg of magnesium chloride were dissolved in 1 mL of distilled water) and 220 μL of distilled water were added to a microtube and the mixture was subjected to a preincubation for 5 minutes at 37° C. Reaction was started by an addition of 25 μL of human liver microsome (final concentration of protein: 1 mg/mL). Incubation was performed for 2, 10, 30 or 60 minutes and the reaction was stopped by an addition of 500 μL of acetonitrile. After centrifugation at 13,000 rpm for 5 minutes, each test compound in the supernatant (25 μL) was measured by HPLC under the following conditions.
Inertsil ODS-3 (4.6×150 mm; GL Science) was used as a column. With regard to the mobile phase, a solution A (acetonitrile/0.1% aqueous solution of ammonium acetate=10/90) and a solution B (acetonitrile/0.1% aqueous solution of ammonium acetate=90/10) were used under the linear gradient conditions mentioned in Tables 5 to 7. The column temperature, the flow rate and the wavelength for detection were set at 40° C., 1.0 mL/min. and UV 250 or 270 nm, respectively.
The compound mentioned in Example 38 was analyzed under the condition shown in Table 6; the compounds mentioned in Examples 55, 56, 68, 69, 72 and 73 were under the condition shown in Table 7; and the other compounds were under the condition shown in Table 5.
The compounds described in Examples 40, 43 to 48, 50, 55, 56, 58, 60, 61, 63 and 65 to 73 were analyzed under the condition of UV 250 nm; and the other compounds were under the condition of UV 270 nm.
From the HPLC test results as above, the metabolic rate of the test compound was calculated.

[5] = Action to increase the urinary excretion of calcium (2), intravenous administration; type: in vivo, SD male rats; conditions: intravenous 22.4 nmol/kg; for Calcium in Urine: urine collected within 24 hours after administration; for Ratio of Calcium in Urine (to control): urine within 24 hours, test compound/control group
Protocol: The compound of the invention mentioned in Example 42, 61 or 66, or maxacalcitol in saline containing 0.1% Triton X 100/5.6% DMSO (22.4 nmol/kg) was subjected to an intravenous administration to SD male rats (7 weeks of age) Saline containing 0.1% Triton X 100/5.6% DMSO was administered to a control group. The calcium concentration in urine collected within 24 hours after the administration was measured and the urinary excretion of calcium ([calcium concentration in urine]×[amount of urine]) and the ratio of urinary excretion of calcium based on the control group ([calcium amount in urine in administration of the test compound]/[calcium amount in urine in the control group]) were calculated.

EC50 [1] [nM]	Serum Calcium Concentration [2] [mg/dL]	Calcium in Urine within 24 hours [3] [mg]	Calcium in Urine within 48 hours [3] [mg]	Calcium in Urine within 72 hours [3] [mg]	Calcium in Urine within 96 hours [3] [mg]	Metabolic Rate [4] [pmol/min/mg]	Calcium in Urine [5] [mg]	Ratio of Calcium in Urine (to control) [5] [%]	EC50 ([1]; Homo sapiens) [nM]	SMILES	effect on the calcium concentration in serum (in words) ([2]; percutaneous 33 μg/200 μL/kg/day for 7 days)
1.2						188	0.6	120		CC1[C@H](O)CC(=C/C=C2\CCC[C@]3(C)[C@@H]([C@H](C)OC(=O)CCC(C)(O)C(F)(F)F)CC[C@@H]23)C[C@H]1O (stereo partly drawn) [Compound of Example 61, (1R,2β,3R,20S)-2-methyl-19-nor-20-(5,5,5-trifluoro-4-hydroxy-4-methylpentanoyloxy)-9,10-secopregna-5Z,7E-diene-1,3-diol]	
						116	0.5	100		CCC(O)(CC)CCC(=O)O[C@@H](C)[C@H]1CC[C@H]2/C(=C/C=C3C[C@@H](O)C(C)[C@H](O)C3)CCC[C@]12C (stereo partly drawn) [Compound of Example 66, (1R,2β,3R,20S) -2-methyl-19-nor-20-[4-ethyl-4-hydroxyhexanoyloxy]-9,10-secopregna-5Z,7E-diene-1,3-diol]	

The remaining lines, values behind:

SMILES	EC50 [1] [nM]	Serum Calcium Concentration [2] [mg/dL]	Calcium in Urine within 24 hours [3] [mg]	Calcium in Urine within 48 hours [3] [mg]	Calcium in Urine within 72 hours [3] [mg]	Calcium in Urine within 96 hours [3] [mg]	Metabolic Rate [4] [pmol/min/mg]	Calcium in Urine [5] [mg]	Ratio of Calcium in Urine (to control) [5] [%]	EC50 ([1]; Homo sapiens) [nM]	effect on the calcium concentration in serum (in words) ([2]; percutaneous 33 μg/200 μL/kg/day for 7 days)
C=C1/C(=C\C=C2/CCC[C@]3(C)[C@@H]([C@H](C)OC(=O)CCC(C)(C)O)CC[C@@H]23)C[C@@H](O)C[C@@H]1O [Compound of Example 1, (1S,3R,20S)-20-(4-hydroxy-4-methylpentanoyloxy)-9,10-secopregna-5Z,7E,10(19)-triene-1,3-diol]	1.5	11.8	0.8	1.4	2.3	3.8	78				
CCC(O)(/C=C/C(=O)O[C@@H](C)[C@H]1CC[C@H]2/C(=C/C=C3C[C@@H](O)C[C@H](O)C3)CCC[C@]12C)CC [Compound of Example 42, (1R,3R,20S)-19-nor-20-[(2E)-4-ethyl-4-hydroxyhex-2-enoyloxy]-9,10-secopregna-5Z,7E-diene-1,3-diol]	1.3						34	0.8	160		
C=C1/C(=C\C=C2/CCC[C@]3(C)[C@@H]([C@H](C)OCCC(C)(C)O)CC[C@@H]23)C[C@@H](O)C[C@@H]1O [Maxacalcitol, (1S,3R,20S)-20-(3-hydroxy-3-methylbutyloxy)-9,10-secopregna-5Z,7E,10(19)-trien-1,3-diol, reference compound]		15.0	2.6	4.5	8.5	13.9	10	2.3	460	5.4	increased the calcium concentration in serum

From patent US8796246B2, “9, 10-secopregnane derivative and pharmaceutical” (Nippon Shinyaku Co., Ltd., priority 2006, dated 2014)
